The source of these data is patent publication US20100003223A1, “METHOD FOR THE PRODUCTION OF MULTICOMPONENT STEM CELLS, RELATIVE KITS AND USES IN THE MEDICAL FIELD” (Metapontium Agrobios S.R.L., priority 2006, published 2010).

The subject of data set [1] is adipose cells. The data set can be described thus: Cell growth determination by BrdU incorporation. To be noted: adipose cells treated. In kind it is cell-based, human.
For data set [2], the system named is adipocytes. The data set can be described thus: Determination of cell apoptosis (TACS Klenow In Situ Apoptotic Detection kit). In kind it is cell-based, human.
The subject of data set [3] is mature adipose cells. The experiment in a line: Morphological analysis of treated cultures by optical (phase contrast) microscopy.
Method: Human pre-adipocytes and embryonic cell lines 3T3-L1 were sown at a density of 5×10^3 cells/cm^2 and cultivated in Petri plates in a proliferative medium (DMEM-F12, 10% Fetal Calf Serum (FCS), 1% antibiotic-fungizone (AF)) until the maximum cell confluence is reached. The differentiative induction is obtained by 48 hour treatment in specific medium consisting of DMEM, 10% Fetal Bovine Serum (FBS), 1 AF and specific differentiating factors (insulin, isobutylmethylxanthine, dexamethasone, indomethacin). The mature differentiated form (univacuolar phenotype) is reached after culture of 7-10 days in maintenance medium, free of adipogenic inductive agents. Immunofluorescence studies verify the expression of leptin, a hormone typically expressed by adipocytes in adult phase.
The mature adipose cells were maintained in a culture with DMEM, 10% FBS, 1 AF for two weeks, under continuous stimulation of 5′ Azacytidine at molar concentrations of 0.1 μM, 1 μM, 10 M, 100 μM, 125 μM, 150 μM, 175 μM, 250 μM.
Data set [4] concerns late-phase adipogenic markers (leptin, GLUT-4). The data set can be described thus: Semiquantitative PCR / RT-PCR of adipogenic marker expression. Particulars: preliminary results; FIG. 1: Ob gene (leptin), 175 μM. Format: cell-based, human. The protocol:
In order to amplify the cDNA obtained from the 5-Aza cultures treated, the following were used: • Eppendorf thermocycler Amplifier; • Specific primers designed with the help of the PrimerQuest program (http://biotools.idt.com) and Nucleotide database consultation (http://www.ncbi.nlm.nih.gov) and BLAST (Basic Local Alignment Search Tool) (http://www.ncbi.nlm.nih.gov/BLAST/).
The primers were purchased from New England Biolabs.
Amplification conditions: 95° C. for 10 minutes (initial denaturation), 30 cycles of 95° C. for 30 seconds (denaturation), 52° C. for 45 seconds (annealing), 72° C. for 45 seconds (extension), 72° C. for 10 minutes (final extension). The reaction mixture was prepared with 1 μl of cDNA, 1 μl of dNtPs Mix (10 mM), 1.25 μl of MgCl2 solution (25 mM), 1.25 μl of buffer 10×, 0.2 μl of Ampli Taq Gold (5U μl) (Applied Biosystem), 1 μl of specific sense primer and 1 μl of antisense primer (10 μM), […] of H2O RNase free in a final volume of 12.5 μl.
The expression of the late-phase adipogenic markers (leptin, GLUT-4), precocious-phase markers (PPAR-γ, CEBP-α) and markers typical of the undifferentiated embryonic state (OCT4, SOX2, NANOG, SSEA-1, alkaline phosphatase) was evaluated by means of PCR and RT-PCR.

The subject of data set [5] is embryoid bodies. To be noted: 1 μM, 6 hours; cited from earlier work.

The structures appear in SMILES notation.

For `Nc1ncn([C@@H]2O[C@H](CO)[C@@H](O)[C@H]2O)c(=O)n1` [5-Azacytidine, 5′ Aza 2′ cytidine], the “cell proliferation by incorporated BrdU” value in data set [1] was “Cell proliferation is observed”. Also, the apoptotic phenomena in data set [2] (125 μM, 25 hours after treatment) was determined as 15%; in data set [2] (125 μM, 48 hours after treatment), 15%; in data set [2] (125 μM, 72 hours after treatment), 10%; in data set [2] (150 μM, 25 hours after treatment), 22%; in data set [2] (150 μM, 48 hours after treatment), 28%; in data set [2] (150 μM, 72 hours after treatment), 10%. The apoptotic phenomena in data set [2] (175 μM, 25 hours after treatment) turned out to be 38%; in data set [2] (175 μM, 48 hours after treatment), 41%; in data set [2] (175 μM, 72 hours after treatment), 10%. Moreover, in data set [3] (250 μM), the “apoptosis of treated cultures (FIG. 7)” value was “a high apoptotic degree is observed”. In addition, the “cell damage and/or cell proliferation (FIG. 8)” value in data set [3] (doses ≦0.1 μM) is on record as “no signs of cell damage and/or cell proliferation”. Besides, in data set [3] (mainly at 1-10 μM and higher than 100 μM, 10 days of treatment, preliminary results), the “morphology of the plate” value is on record as “a change in the morphology of the plate”. Also, the “expression of the differentiative late-phase adipogenic markers” value in data set [4] is “a reduction in the expression”. The “colony growth process and sensitivity to LIF” value in data set [5] was “re-established the colony growth process typical of stem cells and the sensitivity to LEUKEMIA INHIBITORY FACTOR (LIF)”.
